PubChem BioAssay AID330 (DTP/NCI, 2004)
Several values for one entry are separate records, joined by “and”; a condition that tells them apart may be missing. Equal entries are not always repeated. Toxic doses and inconclusive results are not listed.

Tested on: P388 leukemia ip, CD2F1 mice, survival T/C
Assay: NCI In Vivo Anticancer Drug Screen. Data for tumor model P388 Leukemia (intraperitoneal) in CD2F1 (CDF1) mice
Conditions: endpoint: median survival time, higher = longer survival
In short: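 Mice carrying the transplanted tumor received test compound or vehicle. Survival was recorded in each group, and the value is the treated-group measurement divided by that of the vehicle-treated control group.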

[1] = dose: 50.0 mg/kg/injection, schedule: Q01DX009 (ip), vehicle: saline with Tween-80
[2] = dose: 100.0 mg/kg/injection, schedule: Q01DX009 (ip), vehicle: saline with Tween-80
[3] = dose: 200.0 mg/kg/injection, schedule: Q01DX009 (ip), vehicle: saline with Tween-80
[4] = dose: 6.25 mg/kg/injection, schedule: Q01DX009 (ip), vehicle: saline with Tween-80
[5] = dose: 12.5 mg/kg/injection, schedule: Q01DX009 (ip), vehicle: saline with Tween-80
[6] = dose: 25.0 mg/kg/injection, schedule: Q01DX009 (ip), vehicle: saline with Tween-80

CCN(CC)CC[n+]1ccc2c(C)c3[nH]c4ccc(O)cc4c3c(C)c2c1
T/C (dose: 1.56 mg/kg/injection, schedule: Q04DX003 (ip), vehicle: saline): 167 % of control
T/C (dose: 1.56 mg/kg/injection, schedule: Q04DX003 (ip), vehicle: suspension in saline): 155 % of control
T/C (dose: 1.56 mg/kg/injection, schedule: Q04DX003 (ip), vehicle: water): 156 % of control
T/C (dose: 3.12 mg/kg/injection, schedule: Q04DX003 (ip), vehicle: saline): 155 % of control
T/C (dose: 3.12 mg/kg/injection, schedule: Q04DX003 (ip), vehicle: suspension in saline): 169 % of control
T/C (dose: 3.12 mg/kg/injection, schedule: Q04DX003 (ip), vehicle: water): 161 % of control
T/C (dose: 6.25 mg/kg/injection, schedule: Q04DX003 (ip), vehicle: saline): 180 % of control and 213 % of control
T/C (dose: 6.25 mg/kg/injection, schedule: Q04DX003 (ip), vehicle: suspension in saline): 169 % of control
T/C (dose: 6.25 mg/kg/injection, schedule: Q04DX003 (ip), vehicle: water): 166 % of control
T/C (dose: 12.5 mg/kg/injection, schedule: Q04DX003 (ip), vehicle: saline): 174 % of control and 177 % of control
T/C (dose: 12.5 mg/kg/injection, schedule: Q04DX003 (ip), vehicle: suspension in saline): 226 % of control
T/C (dose: 12.5 mg/kg/injection, schedule: Q04DX003 (ip), vehicle: water): 181 % of control
T/C (dose: 25.0 mg/kg/injection, schedule: Q04DX003 (ip), vehicle: saline): 194 % of control and 210 % of control
T/C (dose: 25.0 mg/kg/injection, schedule: Q04DX003 (ip), vehicle: suspension in saline): 164 % of control
T/C (dose: 50.0 mg/kg/injection, schedule: Q04DX003 (ip), vehicle: saline): 178 % of control and 203 % of control
T/C (dose: 50.0 mg/kg/injection, schedule: Q04DX003 (ip), vehicle: suspension in saline): 180 % of control

O=C1NN(c2ccccc2)C(=O)/C1=C\c1ccccc1
T/C [1]: 91 % of control
T/C (dose: 75.0 mg/kg/injection, schedule: Q01DX009 (ip), vehicle: saline with Tween-80): 100 % of control
T/C [2]: 94 % of control
T/C (dose: 150.0 mg/kg/injection, schedule: Q01DX009 (ip), vehicle: saline with Tween-80): 99 % of control
T/C [3]: 95 % of control
T/C (dose: 300.0 mg/kg/injection, schedule: Q01DX009 (ip), vehicle: saline with Tween-80): 95 % of control
T/C (dose: 400.0 mg/kg/injection, schedule: Q01DX009 (ip), vehicle: saline with Tween-80): 114 % of control
T/C (dose: 600.0 mg/kg/injection, schedule: Q01DX009 (ip), vehicle: saline with Tween-80): 104 % of control

COc1cc(O)c(/C=N/Nc2ccc3ccccc3n2)c(OC)c1
T/C (dose: 100.0 mg/kg/injection, schedule: Q01DX001 (ip), vehicle: saline with Tween-80): 91 % of control
T/C (dose: 200.0 mg/kg/injection, schedule: Q01DX001 (ip), vehicle: saline with Tween-80): 104 % of control
T/C (dose: 400.0 mg/kg/injection, schedule: Q01DX001 (ip), vehicle: saline with Tween-80): 89 % of control

Nc1cc(=O)[nH]c(N)n1
T/C [4]: 106 % of control
T/C [5]: 106 % of control
T/C [6]: 106 % of control
T/C [1]: 104 % of control and 108 % of control
T/C [2]: 107 % of control
T/C [3]: 104 % of control

COc1ccc(S(=O)(=O)c2cnc(N)nc2N)cc1
T/C (dose: 100.0 mg/kg/injection, schedule: Q01DX001 (ip), vehicle: saline): 97 % of control
T/C (dose: 200.0 mg/kg/injection, schedule: Q01DX001 (ip), vehicle: saline): 93 % of control
T/C (dose: 400.0 mg/kg/injection, schedule: Q01DX001 (ip), vehicle: saline): 90 % of control

CCC(=O)NS(=O)(=O)c1cccnc1Nc1c(Cl)cccc1Cl
T/C (dose: 50.0 mg/kg/injection, schedule: Q01DX009 (ip), vehicle: saline): 96 % of control
T/C (dose: 100.0 mg/kg/injection, schedule: Q01DX009 (ip), vehicle: saline): 96 % of control
T/C (dose: 200.0 mg/kg/injection, schedule: Q01DX009 (ip), vehicle: saline): 100 % of control

O=C(Nc1ccc(Cl)c(Cl)c1)OCc1cccnc1
T/C (dose: 50.0 mg/kg/injection, schedule: Q01DX009 (ip), vehicle: Klucel (hydroxypropylcellulose) (HPC)): 95 % of control
T/C (dose: 100.0 mg/kg/injection, schedule: Q01DX009 (ip), vehicle: Klucel (hydroxypropylcellulose) (HPC)): 97 % of control
T/C (dose: 200.0 mg/kg/injection, schedule: Q01DX009 (ip), vehicle: Klucel (hydroxypropylcellulose) (HPC)): 95 % of control

Cn1cnc2cc(N3CCCCC3)c(Nc3ccc([N+](=O)[O-])cc3[N+](=O)[O-])cc2c1=O
T/C (dose: 100.0 mg/kg/injection, schedule: Q04DX003 (ip), vehicle: Klucel (hydroxypropylcellulose) (HPC)): 103 % of control
T/C (dose: 200.0 mg/kg/injection, schedule: Q04DX003 (ip), vehicle: Klucel (hydroxypropylcellulose) (HPC)): 98 % of control
T/C (dose: 400.0 mg/kg/injection, schedule: Q04DX003 (ip), vehicle: Klucel (hydroxypropylcellulose) (HPC)): 95 % of control

COc1cc(CCCNC(C)=O)cc(OC)c1OC
T/C (dose: 25.0 mg/kg/injection, schedule: Q01DX005 (ip), vehicle: water): 105 % of control
T/C (dose: 50.0 mg/kg/injection, schedule: Q01DX005 (ip), vehicle: water): 98 % of control
T/C (dose: 100.0 mg/kg/injection, schedule: Q01DX005 (ip), vehicle: water): 96 % of control
T/C (dose: 200.0 mg/kg/injection, schedule: Q01DX005 (ip), vehicle: water): 98 % of control

CNc1[nH]c(=O)[nH]c(=O)c1[N+](=O)[O-]
T/C (dose: 12.5 mg/kg/injection, schedule: Q01DX005 (ip), vehicle: Klucel (hydroxypropylcellulose) (HPC)): 100 % of control
T/C (dose: 25.0 mg/kg/injection, schedule: Q01DX005 (ip), vehicle: Klucel (hydroxypropylcellulose) (HPC)): 105 % of control
T/C (dose: 50.0 mg/kg/injection, schedule: Q01DX005 (ip), vehicle: Klucel (hydroxypropylcellulose) (HPC)): 105 % of control and 112 % of control

c1ccc(P2(c3ccccc3)(c3ccccc3)OCC3CC32)cc1 (centres undefined)
T/C (dose: 3.13 mg/kg/injection, schedule: Q01DX009 (ip), vehicle: saline with Tween-80): 103 % of control
T/C (dose: 3.13 mg/kg/injection, schedule: Q01DX009 (ip), vehicle: saline): 94 % of control
T/C [4]: 106 % of control
T/C (dose: 6.25 mg/kg/injection, schedule: Q01DX009 (ip), vehicle: saline): 98 % of control
T/C [5]: 103 % of control and 124 % of control
T/C (dose: 12.5 mg/kg/injection, schedule: Q01DX009 (ip), vehicle: saline): 95 % of control
T/C [6]: 100 % of control and 111 % of control
T/C (dose: 25.0 mg/kg/injection, schedule: Q01DX009 (ip), vehicle: saline): 100 % of control
T/C (dose: 50.0 mg/kg/injection, schedule: Q01DX009 (ip), vehicle: olive oil, sesame oil, peanut oil): 95 % of control
T/C [1]: 102 % of control

COCC1(C)CCCC2(C)C3=C(CCC(OC(C)=O)C3)CCC12 (centres undefined)
T/C (dose: 100.0 mg/kg/injection, schedule: Q04DX003 (ip), vehicle: suspension in saline): 100 % of control
T/C (dose: 200.0 mg/kg/injection, schedule: Q04DX003 (ip), vehicle: suspension in saline): 102 % of control
T/C (dose: 400.0 mg/kg/injection, schedule: Q04DX003 (ip), vehicle: suspension in saline): 102 % of control

Cc1cc(C)cc(C(C)(C)C)c1
T/C (dose: 100.0 mg/kg/injection, schedule: Q04DX003 (ip), vehicle: saline with Tween-80): 100 % of control
T/C (dose: 200.0 mg/kg/injection, schedule: Q04DX003 (ip), vehicle: saline with Tween-80): 100 % of control

O=CC(CO)C(C=O)n1ncc2ccccc21 (centres undefined)
T/C (dose: 4.0 mg/kg/injection, schedule: Q01DX009 (ip), vehicle: saline with Tween-80): 120 % of control
T/C (dose: 8.0 mg/kg/injection, schedule: Q01DX001 (ip), vehicle: suspension in saline): 108 % of control
T/C (dose: 16.0 mg/kg/injection, schedule: Q01DX001 (ip), vehicle: saline): 107 % of control
T/C (dose: 16.0 mg/kg/injection, schedule: Q01DX001 (ip), vehicle: suspension in saline): 98 % of control
T/C (dose: 16.0 mg/kg/injection, schedule: Q01DX009 (ip), vehicle: saline with Tween-80): 119 % of control
T/C (dose: 32.0 mg/kg/injection, schedule: Q01DX001 (ip), vehicle: saline): 107 % of control and 116 % of control
T/C (dose: 32.0 mg/kg/injection, schedule: Q01DX001 (ip), vehicle: suspension in saline): 94 % of control
T/C (dose: 64.0 mg/kg/injection, schedule: Q01DX001 (ip), vehicle: saline): 172 % of control
T/C (dose: 64.0 mg/kg/injection, schedule: Q01DX001 (ip), vehicle: suspension in saline): 108 % of control

CCN(CC)CCC(=O)c1ccc(OC)c2ccccc12
T/C (dose: 50.0 mg/kg/injection, schedule: Q01DX005 (ip), vehicle: saline): 103 % of control
T/C (dose: 100.0 mg/kg/injection, schedule: Q01DX005 (ip), vehicle: saline): 104 % of control
T/C (dose: 200.0 mg/kg/injection, schedule: Q01DX005 (ip), vehicle: saline): 103 % of control
